# According to patent publication US6303568A, “Therapeutic antimicrobial polypeptides, their use and methods for preparation” (Helix Biomedix, Inc., priority 1996, dated 2001):
# Read-outs that look alike come from different tables or passages of the source. Ends that are not written are not given here.
# Tests used:
# [1] = test system: Brucella abortus; format: in vivo; conditions: 0.176 milligrams/day intramuscularly for 4 days from 12th day post infection; sacrificed 16th day post infection
# [2] = test system: Brucella abortus; format: cell-based
# [3] = test system: E. coli E/2/64; assay: In vitro exposure and plate count, E. coli (Example 3); format: cell-based
# Protocol: A known number of viable microorganisms were exposed to a known concentration of the antimicrobial agent for a given time period. Following exposure, the undiluted or diluted microorganisms were plated on solid growth media, e.g., agar plates. The plates were incubated and numbers of organisms determined by making plate counts. Comparisons are then made with the non-treated bacteria for evidence of inhibition, mortality, or both. The following Examples give detailed experimental procedures and results for several microorganisms and antimicrobial agents. […] The E. coli is collected in late log phase growth at which the majority of cells are in growth phase at 18-24 hours. […] The mixtures were incubated at room temperature for 1 hour, and then at 37° C. for 30 minutes. The mixtures were diluted to 10^-1 or 10^-3 with serial dilutions at 7 drops per dilution (10 microliters per drop), plated on agar growth media, which is a tryptose agar. The plates were incubated for 3 days at 37° C. Plate counts were then made and the results given below.
# [4] = BALB/C mice
# Protocol: The safety of antimicrobial agents according to the present invention was tested according to standard procedures in animal studies.
# Six BALB/C mice, 4 to 5 weeks of age, maintained on commercial rodent ration fed ad libidum and in general good health were each inoculated with 1.76 milligrams/day of cecropin C-37 in balanced salt solution intramuscularly for 4 consecutive days. No other change was made in diet or conditions. […] At the end of the fourth day, three of the […] were humanely destroyed and examined. After 30 days, 3 of the 6 were given an additional 1.76 milligrams each.
# The remaining mice were all killed 7 days after the last inoculation.
# Following the procedure above in Part A, three BALB/C mice were given 110 milligrams/kilogram of body weight of cecropin C-37 injected intramuscularly in balanced salt solution for 6 days. White cell counts and differentials were performed on a daily basis. Ten days after the last inoculation, the mice were again injected intramuscularly with 110 milligrams/kilogram of body weight with Cecropin C-37. […] All three mice were killed 7 days after the final inoculation and tissues were examined.
molecule,measurement,setting,value
"CN(C)[C@@H]1C(O)=C(C(N)=O)C(=O)[C@@]2(O)C(O)=C3C(=O)c4c(O)cccc4[C@@](C)(O)[C@H]3C[C@@H]12 [Tetracycline, tetracycline]",Concentration of Brucella abortus in BALB/c Mouse Spleen Tissue After 4 Days Treatment,[1],4.4 × 10^3 per gram of spleen
KWKVFKKIEKMGRNIRNGIVKAGPAIAVLGEAKAL-NH2 [Cecropin B],Effect on Brucella abortus (growth),[2],no growth
same,Effect on E. coli (growth),[3]; 5 × 10^-6 molar,no growth
same,Effect on E. coli (growth),[3]; lower concentrations of 1 nanomolar and 1 micromolar,positive E. coli growth
MPKWKVFKKIEKVGRNIRNGIVKAGPAIAVLGEAKAL-NH2 [Cecropin C-37],IgG antibody to the antimicrobial agent,[4]; 1.76 milligrams/day intramuscularly,None of these mice produced detectable levels
same,adverse reactions,"[4]; 1.76 milligrams/day intramuscularly for 4 consecutive days, observed twice daily",no adverse reactions
same,gross pathological changes in organs and at injection sites,"[4]; 1.76 milligrams/day intramuscularly, killed 7 days after last inoculation",no gross pathological changes
same,Cecropin C-37 antibodies,[4]; 110 milligrams/kilogram intramuscularly,No Cecropin C-37 antibodies were detected
same,adverse effects,"[4]; 110 milligrams/kilogram intramuscularly for 6 days, again ten days after",no adverse effects
same,tissue examination,"[4]; 110 milligrams/kilogram intramuscularly, killed 7 days after final inoculation",enlarged spleens but were otherwise unremarkable
same,adverse reactions,[4]; additional 1.76 milligrams each after 30 days,No adverse reactions
"lysozyme: lysozyme, tested by itself and combined with cecropins",Effect on E. coli (growth),"[3]; lysozyme itself at 10 micrograms, 1 milligram, and 10 milligrams per milliliter, 10^-1 and 10^-3 dilutions",positive growth
